13 molecules from ChEMBL document CHEMBL5465560, “Selectivity Literature for EUbOPEN Chemogenomic Library” (2024) can be followed below.

Some results are limits rather than exact numbers.

Assay [1] addresses Mitogen-activated protein kinase 11 (Homo sapiens) (UniProt Q15759). The note with it: at 10 µM.
Assay [2] has as its target T1, Dual specificity mitogen-activated protein kinase kinase 5 (Homo sapiens) (UniProt Q13163).
T1 sequence (whole entry): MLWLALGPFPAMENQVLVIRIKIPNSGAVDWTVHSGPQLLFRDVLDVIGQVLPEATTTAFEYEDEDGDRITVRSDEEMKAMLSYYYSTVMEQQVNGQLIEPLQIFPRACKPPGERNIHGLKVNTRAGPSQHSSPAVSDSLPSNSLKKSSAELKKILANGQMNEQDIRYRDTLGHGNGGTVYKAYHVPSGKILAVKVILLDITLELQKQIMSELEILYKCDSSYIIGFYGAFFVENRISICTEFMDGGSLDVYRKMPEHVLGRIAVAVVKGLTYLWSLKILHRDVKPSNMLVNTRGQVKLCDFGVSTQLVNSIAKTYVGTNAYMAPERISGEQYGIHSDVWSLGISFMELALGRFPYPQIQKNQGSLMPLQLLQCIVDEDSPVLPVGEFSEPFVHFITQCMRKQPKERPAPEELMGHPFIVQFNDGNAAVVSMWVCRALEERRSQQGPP
Kind of assay: Selectivity interaction (KinomeScan (DiscoverX)) EUB0000655a MAP2K5. The note with it: at 10 µM.

In assay [3] the target is Calcium/calmodulin-dependent protein kinase type 1G (Homo sapiens) (UniProt Q96NX5). Put plainly: Selectivity interaction (KinomeScan (DiscoverX)) EUB0001079a CAMK1G. To be noted: at 1 µM.
Assay [4] addresses Serine/threonine-protein kinase OSR1 (Homo sapiens) (UniProt O95747). Put plainly: Selectivity interaction (KinomeScan (DiscoverX)) EUB0001079a OXSR1. The note with it: at 1 µM.
In assay [5] the target is Tyrosine-protein kinase Fyn (Homo sapiens) (UniProt P06241). Put plainly: Selectivity interaction (ActivX KiNativ screen (ex vivo kinase selectivity in human PBMCs)) EUB0001619a FYN. The assay is classed as cell-based. To be noted: PBMC, at 1 µM.
In assay [6] the target is T2, Serine/threonine-protein kinase TBK1 (Homo sapiens) (UniProt Q9UHD2).
T2 sequence (whole entry): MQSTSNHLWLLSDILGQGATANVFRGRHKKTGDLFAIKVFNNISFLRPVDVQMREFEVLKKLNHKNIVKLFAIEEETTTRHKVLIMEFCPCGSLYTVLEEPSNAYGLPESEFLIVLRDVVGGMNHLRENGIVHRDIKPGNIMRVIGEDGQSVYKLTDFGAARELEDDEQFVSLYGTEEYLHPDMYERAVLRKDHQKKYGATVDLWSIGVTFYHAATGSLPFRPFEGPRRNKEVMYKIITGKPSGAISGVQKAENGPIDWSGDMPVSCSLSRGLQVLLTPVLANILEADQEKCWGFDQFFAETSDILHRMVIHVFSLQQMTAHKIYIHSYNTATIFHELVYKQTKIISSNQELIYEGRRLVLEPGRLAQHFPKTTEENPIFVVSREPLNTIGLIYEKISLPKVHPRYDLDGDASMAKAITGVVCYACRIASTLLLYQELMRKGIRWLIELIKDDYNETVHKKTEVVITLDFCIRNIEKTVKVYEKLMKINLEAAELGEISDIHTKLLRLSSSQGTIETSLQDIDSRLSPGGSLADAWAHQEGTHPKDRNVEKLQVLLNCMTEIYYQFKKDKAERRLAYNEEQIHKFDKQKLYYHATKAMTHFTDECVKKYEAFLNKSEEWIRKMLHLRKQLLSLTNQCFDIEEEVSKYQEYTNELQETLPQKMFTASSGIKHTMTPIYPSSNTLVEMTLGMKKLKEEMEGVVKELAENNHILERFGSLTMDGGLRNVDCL
Put plainly: Selectivity interaction (ActivX KiNativ screen (kinase selectivity in THP-1 cell lysates)) EUB0000639a TBK1. The assay is classed as subcellular. The note with it: lysate, at 0.01 µM.

Assay [7] deals with Microtubule-associated serine/threonine-protein kinase 2 (Homo sapiens) (UniProt Q6P0Q8). Put plainly: Selectivity interaction (ActivX KiNativ screen (kinase selectivity in THP-1 cell lysates)) EUB0000639a MAST2. In kind it is subcellular. To be noted: lysate.
In assay [8] the target is cAMP-dependent protein kinase catalytic subunit beta (Homo sapiens) (UniProt P22694). Put plainly: Selectivity interaction (KinomeScan (DiscoverX)) EUB0001049a PRKACB. To be noted: at 1 µM.
The target in assay [9] is NT-3 growth factor receptor (Homo sapiens, UniProt Q16288). Kind of assay: Selectivity interaction (KinomeScan (DiscoverX)) EUB0000695a NTRK3. To be noted: at 100 nM.
The target in assay [10] is Tyrosine-protein kinase HCK (Homo sapiens) (UniProt P08631). Kind of assay: Selectivity interaction (ProQinase) EUB0000171b HCK.
Assay [11] addresses Bromodomain-containing protein 3 (Homo sapiens) (UniProt Q15059). Put plainly: Selectivity interaction (Human bromodomain panel (DSF assay)) EUB0000233b BRD3. (In general: DSF heats the sample and reads unfolding from a dye or from intrinsic fluorescence.)
The target in another assay is Mu-type opioid receptor (Homo sapiens, UniProt P35372). Kind of assay: Selectivity interaction (Panel of kinases, GPCRs, ion channels and transporters (enzymatic assay)) EUB0000223bCl OPRM1.
Assay [12] has as its target Dual specificity protein kinase CLK3 (Homo sapiens, UniProt P49761). Put plainly: Selectivity interaction (KinomeScan (DiscoverX)) EUB0000092b CLK3. To be noted: at 10 µM.
The target of assay [13] is Mitogen-activated protein kinase kinase kinase 4 (Homo sapiens) (UniProt Q9Y6R4). Kind of assay: Selectivity interaction (KinomeScan (DiscoverX)) EUB0000045b MAP3K4.
The target of assay [14] is T3, Serine/threonine-protein kinase MAK (Homo sapiens) (UniProt P20794).
T3 sequence (whole entry): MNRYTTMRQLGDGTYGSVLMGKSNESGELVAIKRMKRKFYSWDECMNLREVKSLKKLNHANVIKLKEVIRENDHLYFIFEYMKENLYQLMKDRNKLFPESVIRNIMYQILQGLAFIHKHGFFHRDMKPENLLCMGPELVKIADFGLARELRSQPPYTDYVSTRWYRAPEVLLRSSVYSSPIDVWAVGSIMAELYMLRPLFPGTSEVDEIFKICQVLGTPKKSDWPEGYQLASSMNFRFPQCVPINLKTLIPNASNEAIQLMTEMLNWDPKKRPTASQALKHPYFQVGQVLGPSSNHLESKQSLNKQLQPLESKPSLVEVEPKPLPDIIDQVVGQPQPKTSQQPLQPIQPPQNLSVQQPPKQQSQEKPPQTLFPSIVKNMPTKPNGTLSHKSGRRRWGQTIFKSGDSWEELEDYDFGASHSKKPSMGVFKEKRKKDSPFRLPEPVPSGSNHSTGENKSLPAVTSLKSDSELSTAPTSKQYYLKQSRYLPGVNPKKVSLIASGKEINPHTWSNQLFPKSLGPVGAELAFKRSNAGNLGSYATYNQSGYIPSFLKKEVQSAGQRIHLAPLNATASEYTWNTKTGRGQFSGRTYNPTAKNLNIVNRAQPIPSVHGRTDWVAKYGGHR
Kind of assay: Selectivity interaction (KinomeScan (DiscoverX)) EUB0000595a MAK. The note with it: at 10 µM.

Microtubule-associated serine/threonine-protein kinase 2 (Homo sapiens), sequence (Q6P0Q8 whole entry): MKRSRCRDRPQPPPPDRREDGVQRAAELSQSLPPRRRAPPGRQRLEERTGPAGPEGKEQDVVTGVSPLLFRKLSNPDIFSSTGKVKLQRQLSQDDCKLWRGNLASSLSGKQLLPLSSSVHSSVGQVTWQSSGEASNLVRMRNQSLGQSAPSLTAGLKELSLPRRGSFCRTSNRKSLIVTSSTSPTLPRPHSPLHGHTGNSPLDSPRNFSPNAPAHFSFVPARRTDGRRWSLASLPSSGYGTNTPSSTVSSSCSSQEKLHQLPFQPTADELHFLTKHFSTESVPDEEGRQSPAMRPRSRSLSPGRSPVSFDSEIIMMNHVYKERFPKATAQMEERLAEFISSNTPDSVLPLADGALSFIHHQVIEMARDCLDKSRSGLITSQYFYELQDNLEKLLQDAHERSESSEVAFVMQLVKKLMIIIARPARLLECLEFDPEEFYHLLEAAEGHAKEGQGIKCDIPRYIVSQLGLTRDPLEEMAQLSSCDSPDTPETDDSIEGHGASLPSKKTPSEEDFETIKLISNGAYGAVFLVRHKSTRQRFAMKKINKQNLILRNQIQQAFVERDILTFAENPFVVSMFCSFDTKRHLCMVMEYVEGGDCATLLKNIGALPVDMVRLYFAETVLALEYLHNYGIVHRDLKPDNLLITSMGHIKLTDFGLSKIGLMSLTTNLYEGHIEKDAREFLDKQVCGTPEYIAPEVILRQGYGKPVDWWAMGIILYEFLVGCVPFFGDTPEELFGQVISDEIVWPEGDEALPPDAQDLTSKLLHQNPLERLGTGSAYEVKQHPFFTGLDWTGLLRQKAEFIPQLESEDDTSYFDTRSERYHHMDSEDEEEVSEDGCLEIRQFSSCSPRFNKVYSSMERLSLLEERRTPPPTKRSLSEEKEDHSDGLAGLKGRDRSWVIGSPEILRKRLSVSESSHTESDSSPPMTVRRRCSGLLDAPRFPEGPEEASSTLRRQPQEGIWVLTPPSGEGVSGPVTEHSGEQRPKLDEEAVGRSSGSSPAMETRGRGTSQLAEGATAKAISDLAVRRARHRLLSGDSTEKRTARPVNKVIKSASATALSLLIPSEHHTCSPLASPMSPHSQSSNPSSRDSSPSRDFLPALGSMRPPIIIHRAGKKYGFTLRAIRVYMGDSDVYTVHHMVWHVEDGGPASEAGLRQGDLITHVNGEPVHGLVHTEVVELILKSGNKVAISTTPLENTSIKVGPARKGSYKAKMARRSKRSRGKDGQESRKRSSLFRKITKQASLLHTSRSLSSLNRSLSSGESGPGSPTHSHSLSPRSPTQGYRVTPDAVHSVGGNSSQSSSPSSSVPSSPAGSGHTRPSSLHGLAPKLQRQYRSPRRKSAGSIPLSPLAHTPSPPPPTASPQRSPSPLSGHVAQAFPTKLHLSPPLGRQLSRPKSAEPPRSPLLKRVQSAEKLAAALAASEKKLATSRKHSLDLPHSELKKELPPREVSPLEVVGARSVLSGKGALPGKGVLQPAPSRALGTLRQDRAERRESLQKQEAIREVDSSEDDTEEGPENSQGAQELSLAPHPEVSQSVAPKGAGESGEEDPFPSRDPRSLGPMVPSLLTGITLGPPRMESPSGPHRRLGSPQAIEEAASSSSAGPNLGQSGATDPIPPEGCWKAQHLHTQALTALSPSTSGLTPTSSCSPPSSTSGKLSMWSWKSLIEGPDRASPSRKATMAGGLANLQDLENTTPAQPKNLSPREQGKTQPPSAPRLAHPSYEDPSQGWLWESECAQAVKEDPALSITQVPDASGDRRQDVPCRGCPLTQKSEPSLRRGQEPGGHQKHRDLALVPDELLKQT
Mitogen-activated protein kinase kinase kinase 4 (Homo sapiens), sequence (Q9Y6R4 whole entry): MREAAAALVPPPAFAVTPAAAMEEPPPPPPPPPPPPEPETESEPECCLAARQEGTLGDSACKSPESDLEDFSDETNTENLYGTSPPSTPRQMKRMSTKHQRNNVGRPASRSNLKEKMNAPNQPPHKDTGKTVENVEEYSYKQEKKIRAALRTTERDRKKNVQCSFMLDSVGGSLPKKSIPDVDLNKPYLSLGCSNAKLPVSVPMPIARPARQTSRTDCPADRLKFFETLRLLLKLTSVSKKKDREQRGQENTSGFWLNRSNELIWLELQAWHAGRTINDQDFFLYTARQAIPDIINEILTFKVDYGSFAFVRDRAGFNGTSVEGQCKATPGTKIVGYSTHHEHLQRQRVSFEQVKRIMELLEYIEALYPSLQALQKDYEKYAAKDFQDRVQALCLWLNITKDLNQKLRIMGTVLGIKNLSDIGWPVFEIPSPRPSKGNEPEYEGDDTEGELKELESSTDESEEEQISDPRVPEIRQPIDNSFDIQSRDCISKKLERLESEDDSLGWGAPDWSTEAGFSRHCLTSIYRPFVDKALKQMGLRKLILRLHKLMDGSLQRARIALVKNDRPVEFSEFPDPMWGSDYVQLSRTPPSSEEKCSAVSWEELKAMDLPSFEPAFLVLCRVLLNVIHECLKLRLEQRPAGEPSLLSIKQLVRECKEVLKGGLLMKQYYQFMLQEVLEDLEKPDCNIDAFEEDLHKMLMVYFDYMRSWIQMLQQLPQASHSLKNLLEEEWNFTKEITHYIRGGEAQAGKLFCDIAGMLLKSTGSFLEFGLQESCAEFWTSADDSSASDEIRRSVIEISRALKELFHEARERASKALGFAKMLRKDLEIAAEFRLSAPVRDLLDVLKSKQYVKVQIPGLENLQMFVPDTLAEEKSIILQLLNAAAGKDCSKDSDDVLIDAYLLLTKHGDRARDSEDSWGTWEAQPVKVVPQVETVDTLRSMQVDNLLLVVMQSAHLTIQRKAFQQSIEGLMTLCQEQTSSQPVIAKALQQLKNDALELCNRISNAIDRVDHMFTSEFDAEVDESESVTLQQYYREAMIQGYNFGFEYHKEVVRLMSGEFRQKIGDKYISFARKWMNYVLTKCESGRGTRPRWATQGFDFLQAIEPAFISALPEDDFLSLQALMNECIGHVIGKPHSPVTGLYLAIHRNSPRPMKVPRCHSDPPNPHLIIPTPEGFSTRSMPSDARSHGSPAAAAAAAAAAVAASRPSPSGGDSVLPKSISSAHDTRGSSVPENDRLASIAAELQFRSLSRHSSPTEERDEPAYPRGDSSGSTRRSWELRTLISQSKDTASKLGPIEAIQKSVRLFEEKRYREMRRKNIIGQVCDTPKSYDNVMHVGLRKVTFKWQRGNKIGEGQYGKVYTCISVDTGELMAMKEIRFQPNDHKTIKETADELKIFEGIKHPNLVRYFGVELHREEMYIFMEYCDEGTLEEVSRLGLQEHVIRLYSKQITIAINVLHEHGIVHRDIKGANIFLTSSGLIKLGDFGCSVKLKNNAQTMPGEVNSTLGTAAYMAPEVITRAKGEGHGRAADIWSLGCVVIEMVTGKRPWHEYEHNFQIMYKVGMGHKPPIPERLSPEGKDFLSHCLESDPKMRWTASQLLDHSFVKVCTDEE
Tyrosine-protein kinase HCK (Homo sapiens), sequence (P08631 2-526 limits assumed): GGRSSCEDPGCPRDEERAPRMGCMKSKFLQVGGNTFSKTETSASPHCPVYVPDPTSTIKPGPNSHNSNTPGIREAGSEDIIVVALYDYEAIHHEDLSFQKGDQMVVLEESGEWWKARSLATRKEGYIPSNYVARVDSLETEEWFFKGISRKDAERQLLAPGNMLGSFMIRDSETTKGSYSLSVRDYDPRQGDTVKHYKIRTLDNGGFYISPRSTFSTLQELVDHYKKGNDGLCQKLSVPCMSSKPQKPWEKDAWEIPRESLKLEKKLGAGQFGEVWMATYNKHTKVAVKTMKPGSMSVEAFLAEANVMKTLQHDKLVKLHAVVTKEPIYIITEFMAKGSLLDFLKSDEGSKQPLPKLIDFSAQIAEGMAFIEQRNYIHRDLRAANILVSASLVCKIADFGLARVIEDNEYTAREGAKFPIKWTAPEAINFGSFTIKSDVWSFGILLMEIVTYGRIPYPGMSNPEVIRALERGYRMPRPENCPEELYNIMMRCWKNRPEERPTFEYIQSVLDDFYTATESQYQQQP
Serine/threonine-protein kinase OSR1 (Homo sapiens), sequence (O95747 2-527 limits assumed): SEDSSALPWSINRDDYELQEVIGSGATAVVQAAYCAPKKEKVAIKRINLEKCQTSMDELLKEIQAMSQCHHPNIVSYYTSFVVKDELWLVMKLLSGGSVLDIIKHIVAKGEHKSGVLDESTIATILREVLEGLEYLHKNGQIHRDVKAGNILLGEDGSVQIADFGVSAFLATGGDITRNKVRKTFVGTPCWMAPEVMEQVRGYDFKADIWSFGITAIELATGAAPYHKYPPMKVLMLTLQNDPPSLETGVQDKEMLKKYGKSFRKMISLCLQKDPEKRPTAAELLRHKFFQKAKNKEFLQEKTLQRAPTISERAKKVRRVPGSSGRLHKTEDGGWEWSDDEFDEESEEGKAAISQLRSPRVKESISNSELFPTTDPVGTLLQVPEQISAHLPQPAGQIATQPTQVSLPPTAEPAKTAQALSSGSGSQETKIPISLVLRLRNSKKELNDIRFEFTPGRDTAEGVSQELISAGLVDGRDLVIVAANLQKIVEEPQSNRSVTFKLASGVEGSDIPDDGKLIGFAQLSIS
Tyrosine-protein kinase Fyn (Homo sapiens), sequence (P06241 2-537 limits assumed): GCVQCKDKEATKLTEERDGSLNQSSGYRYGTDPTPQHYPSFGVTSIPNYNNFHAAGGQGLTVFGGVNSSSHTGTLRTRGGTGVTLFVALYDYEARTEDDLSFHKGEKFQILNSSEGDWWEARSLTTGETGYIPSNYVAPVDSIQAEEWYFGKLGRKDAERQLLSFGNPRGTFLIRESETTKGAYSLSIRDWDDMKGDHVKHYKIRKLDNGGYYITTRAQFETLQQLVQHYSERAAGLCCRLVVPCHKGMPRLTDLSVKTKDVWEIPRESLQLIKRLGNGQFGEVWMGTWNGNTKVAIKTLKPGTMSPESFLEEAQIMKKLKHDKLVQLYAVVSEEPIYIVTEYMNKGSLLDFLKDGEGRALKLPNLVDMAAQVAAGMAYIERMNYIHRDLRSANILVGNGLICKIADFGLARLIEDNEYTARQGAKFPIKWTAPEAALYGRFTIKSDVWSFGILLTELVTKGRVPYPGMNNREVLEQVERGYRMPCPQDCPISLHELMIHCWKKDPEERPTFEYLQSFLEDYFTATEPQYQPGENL

Regarding `Cc1cc([C@@H](C)Nc2ccccc2C(=O)O)c2nc(N3CCOCC3)cc(=O)n2c1` [AZD-6482], in [1], the % of control is 91%.

Molecule `CN(C)CCOc1ccc(-c2nc(-c3ccncc3)c(-c3ccc4c(c3)CC/C4=N\O)[nH]2)cc1` came in with a % of control in assay [2] of 22%.

Consider `Nc1cnc(N2CCc3cc(S(=O)(=O)Nc4c(F)cc(Cl)cc4F)cc(N4CCCC4=O)c32)nc1` [TP-020n], for which the % of control in [3] stood at 100%; in assay [4], 75%.

`N#Cc1cccc(-c2c[nH]c3ncnc(N4CCOCC4)c23)c1`: the % of inhibition in [5] is -9%.

Consider `CC[C@@H]1[C@H](F)C(=O)N[C@@H]1COc1nccc2cc(C(N)=O)c(OC)cc12` [ZIMLOVISERTIB], for which the % of inhibition in assay [6] was 1.3%; in [7] (at 0.01 µM), -0.4%; in assay [7] (at 0.04 µM) it was -2.4%; in assay [7] (at 0.2 µM), -2.5%; in [7] (at 1 µM) it was -1.4%; in assay [7] (at 5 µM), -30.3%.

In assay [8], `COc1cc(Nc2nc(C)cc(-c3cnn4nc(OC)ccc34)n2)cc(C(F)(F)F)c1` gave a % of control of 100%.

Molecule `Cc1cc(F)c(C(=O)Nc2cccc(-c3nncn3C(C)C)n2)cc1-n1cnc(C2CC2)c1` registered a % of control in assay [9] of 86%.

Take `C=CC(=O)Nc1cccc(C(=O)Nc2ccc(Nc3cc(-c4[nH]c(SC)nc4C)ccn3)cc2)c1`: the % of control in [10] (at 1 µM) amounted to 105%; in assay [10] (at 5 µM), 88%.

`CN(C)CCCOc1ccc(-c2cc(NCCCn3cccn3)nc(S(C)(=O)=O)n2)cc1` registered a dTM in [11] of less than 2 K.

In the case of `COc1cc(C(=O)N2CC[C@@H](O)[C@@H](N)C2)cc2nc(-c3cc4ccccc4n3CC3CC3)n(C)c12`, the pXC50 at Mu-type opioid receptor is less than 4 M.

In assay [12], `CCC(=O)N1CCN(c2ccc(-n3c(=O)ccc4cnc5ccc(-c6cnc7ccccc7c6)cc5c43)cc2C(F)(F)F)CC1` had a % of control of 43%.

`C=CC(=O)Nc1cc(-n2c(=O)ccc3cnc4ccc(-c5ccc(NS(C)(=O)=O)cc5)cc4c32)ccc1C`: the values for the % of control in assay [13] (at 1 µM) and in assay [13] (at 10 µM) were 89% and 100%, respectively.

`COCC(=O)NC/C=C/c1ccc2ncnc(Nc3ccc(Oc4ccc(C)nc4)c(C)c3)c2c1` [CP-724714] showed a % of control in assay [14] of 90%.
